100 compounds from the CATMoS acute toxicity set (Mansouri et al. 2021) can be followed below.

A short description of the data set: GHS categories as the set defines them, by LD50: 1 up to 5, 2 up to 50, 3 up to 300, 4 up to 2000, 5 above 2000 mg/kg. The following applies: rat; in vivo; po.

On to `CC(C)(C)C1CCC(OC(=O)OOC(=O)OC2CCC(C(C)(C)C)CC2)CC1` (stereo not given), for which the GHS category is recorded as 5.

In turn, `O=C(O)[C@H](O)[C@H](O)[C@@H](O)[C@H](O)[C@H](O)CO` showed a GHS category of 5.

As for `Clc1ccc(C2=NCOCS2)cc1`, the GHS category is reported as 4.

Turning to `C=CC(=O)OCCCCCC(C)C`, the GHS category came out at 5.

With `CCCCCCCCCCCC(=O)N(CCCC)CCCC`, the GHS category is given as 5.

On to `Cc1cccc(N(C)C(=S)Oc2ccc3ccccc3c2)c1`, for which the GHS category is given as 5.

As for `Cc1ccc(Nc2nc(Nc3ccc(C)cc3)c(N=Nc3ccccc3C(F)(F)F)c(C)c2C#N)cc1`, the GHS category turned out to be 5.

The compound `Cc1cc(Cl)ccc1OC(C)C(=O)Nc1ccccc1` (stereo not given) showed a GHS category of 5.

Turning to `O=C1Nc2ccccc2OC1(c1ccc(O)cc1)c1ccc(O)cc1`, the GHS category stood at 5.

In turn, `CCCCC(CC)COC(=O)C(C#N)=C(c1ccccc1)c1ccccc1` (stereo not given) came in with a GHS category of 5.

For `C=C(C)c1cccc(C(=C)C)c1`, the GHS category was found to be 5.

`CCC(=O)O[C@H]1[C@H](O[C@@H]2[C@@H](C)[C@H](O[C@H]3C[C@@](C)(OC)[C@@H](O)[C@H](C)O3)[C@@H](C)C(=O)O[C@H](CC)[C@@](C)(O)[C@H](O)[C@@H](C)C(=O)[C@H](C)C[C@@]2(C)O)O[C@H](C)C[C@@H]1N(C)C` registered a GHS category of 5.

The compound `NC1CCN(c2nc3c(cc2F)c(=O)c(C(=O)O)cn3-c2ccc(F)cc2F)C1` (stereo not given) registered a GHS category of 5.

On to `C[C@H]1CCCC(=O)CCCC=Cc2cc(O)cc(O)c2C(=O)O1`, for which the GHS category amounted to 5.

In turn, `CC(=O)CC(=O)O[C@H]1C[C@@H](C)CC[C@@H]1C(C)C` registered a GHS category of 5.

As for `CC(C)OC(=O)C(C)N(C(=O)c1ccccc1)c1ccc(F)c(Cl)c1` (stereo not given), the GHS category is on record as 5.

As to `CC(=O)OC(C)Cc1ccccc1` (stereo not given), the GHS category is given as 5.

`CC1Oc2cc(C(=O)c3cccs3)ccc2N(C)C1=O` (stereo not given) displayed a GHS category of 5.

The compound `C=CC(=O)OCCN(C)S(=O)(=O)C(F)(F)C(F)(F)C(F)(F)C(F)(F)F` (racemic) gave a GHS category of 5.

`CN(C)CC(=O)N/N=C/c1c(Cl)nc2n1CCS2` yielded a GHS category of 4.

Consider `CC(C)C1=CC23CCC4C(C)(C(=O)N(C)C)CCCC4(C)C2CC1C1C(=O)OC(=O)C13` (stereo not given), for which the GHS category amounted to 5.

Compound `CCCCCCCCCCCCCCOc1ccc(C(=O)O)o1` had a GHS category of 5.

In the case of `CCc1cccc(C)c1Nc1ccc(Nc2c(C)cccc2CC)c2c1C(=O)c1ccccc1C2=O`, the GHS category was determined as 5.

As for `CCCCCCOC(=O)C(C)(C)C`, the GHS category was found to be 5.

`CC(C=O)C(=O)c1ccc(C2CCCCC2)cc1` (stereo not given): the GHS category is reported as 4.

In the case of `COC(=O)[C@H]1[C@H]2C[C@@H]3c4[nH]c5cc(OC)ccc5c4CCN3C[C@H]2C[C@@H](OC(=O)/C=C/c2ccc(O)c(OC)c2)[C@@H]1OC`, the GHS category was 5.

Compound `OCC(CBr)(CBr)CBr` came in with a GHS category of 5.

For `CCNc1nc(Cl)nc(NCC(=O)O)n1`, the GHS category came to 5.

`c1ccc2oc(C3(Cn4cncn4)OCCO3)cc2c1` returned a GHS category of 4.

For `CC=CC(=O)OCCCCCC`, the GHS category is reported as 5.

Compound `CNC(=O)c1sc(-c2ccc(OC)cc2)nc1C` returned a GHS category of 5.

Take `C[Si](Cl)(Cl)c1ccccc1`: the GHS category amounted to 3.

The compound `CCCCCCCCCCN(C)C` yielded a GHS category of 5.

In turn, `O=C(O)C(=O)[C@@H](O)[C@H](O)[C@H](O)CO` displayed a GHS category of 5.

`NC(=O)NNC(N)=O` gave a GHS category of 5.

Consider `Oc1cc(Cl)cc(Br)c1`, for which the GHS category came to 5.

Consider `CC(C=O)(CO)CO`, for which the GHS category was found to be 5.

`CCCC(CCC)C(=O)Oc1cc(C)ccc1C(C)C` returned a GHS category of 5.

In the case of `O=C(CCl)N(c1ccccc1)c1c(Cl)cccc1Cl`, the GHS category was 5.

On to `CCOC(=O)C(=O)Nc1nc(-c2ccccc2)cs1`, for which the GHS category is 5.

For the compound `Cc1nn(C)c(O)c1C(=O)c1ccc(C(F)(F)F)cc1S(C)(=O)=O`, the GHS category amounted to 5.

Compound `CCCNC(=O)c1cnc2ccccn2c1=O` registered a GHS category of 3.

The compound `CCCCCCCCCCCCCCCCCCCC` yielded a GHS category of 5.

Compound `O=C(OCCOCCO)c1cc(O)ccc1Nc1ccc(O)c(C(F)(F)F)c1` showed a GHS category of 4.

On to `C=COCCCN`, for which the GHS category is recorded as 4.

The compound `CC(=O)OC1CCCCC1C` (stereo not given) came in with a GHS category of 5.

The compound `CN(C(=O)CNCP(=O)(O)O)S(C)(=O)=O` yielded a GHS category of 2.

For `CN(C)Cc1ccccc1Cl`, the GHS category came to 4.

In turn, `CCOC(=O)c1ccc(NC(=O)CC)cc1NC(=O)c1ccc(C(=O)O)cc1` had a GHS category of 5.

`CCC(=O)O[C@]1(C(=O)COC(C)=O)CC[C@H]2[C@@H]3C[C@H](C)C4=CC(=O)C=C[C@]4(C)[C@H]3[C@@H](O)C[C@@]21C` had a GHS category of 5.

`COc1cc(NC(=O)C(/N=N/c2cc(OC)c(S(=O)(=O)Nc3ccccc3)cc2OC)C(C)=O)c(OC)cc1Cl` (stereo not given) had a GHS category of 5.

Turning to `CO[C@@]1(NC(=O)C2SC(=C(C(N)=O)C(=O)O)S2)C(=O)N2C(C(=O)O)=C(CSc3nnnn3C)CS[C@@H]21` (stereo not given in full), the GHS category turned out to be 5.

As for `O=C(NCC(O)CCl)c1ccc([N+](=O)[O-])cc1` (stereo not given), the GHS category is reported as 3.

As for `COc1cccc(N(C)C(=S)Oc2cccc(C(C)(C)C)c2)n1`, the GHS category is recorded as 5.

With `B12B3B4B1C234`, the GHS category is listed as 5.

For the compound `Cc1cc(C)c(C(=O)P(=O)(C(=O)c2c(C)cc(C)cc2C)c2ccccc2)c(C)c1`, the GHS category is given as 5.

For `CCO[Si](CC(C)C)(OCC)OCC`, the GHS category was 5.

As to `COC(Cn1cncn1)(OC)c1cc2ccccc2o1`, the GHS category turned out to be 4.

`COc1ccc(-c2cc(=O)c3c(OCCO)cc(O[C@@H]4O[C@H](CO[C@@H]5O[C@@H](C)[C@H](O)[C@@H](O)[C@H]5O)[C@@H](O)[C@H](O)[C@H]4O)cc3o2)cc1O` displayed a GHS category of 5.

On to `CCOc1nn(-c2cccc(C(F)(F)F)c2)c2ncccc12`, for which the GHS category was 4.

On to `CCN(CC)c1nc2ccccn2c(=O)c1C=NN1CCOC1=O`, for which the GHS category is reported as 3.

With `NC(=O)c1ccc[n+]([C@@H]2O[C@H](COP(=O)([O-])OP(=O)(O)OC[C@H]3O[C@@H](n4cnc5c(N)ncnc54)[C@H](O)[C@@H]3O)[C@@H](O)[C@H]2O)c1`, the GHS category is listed as 5.

In the case of `CCOC(=O)C(C)CC` (stereo not given), the GHS category was found to be 5.

The compound `CCCc1c(OCc2cccn3c(=O)c(-c4nn[nH]n4)cnc23)ccc(C(C)=O)c1O` had a GHS category of 5.

In turn, `CN1C(C(=O)Nc2ccccn2)=C(O)c2sc(O)cc2S1(=O)=O` had a GHS category of 3.

In the case of `OC[C@H]1CO[C@@](Cn2cncn2)(c2cc3ccccc3o2)O1`, the GHS category turned out to be 4.

`CS/C(C)=N/O` returned a GHS category of 4.

Take `OC[C@@H](O)[C@@H](O[C@@H]1O[C@H](CO)[C@H](O)[C@H](O)[C@H]1O)[C@H](O)[C@@H](O)CO`: the GHS category is 5.

In turn, `CCOC(=O)C(=O)Nc1cc(SCCOC(=O)C(=O)OCC)nc(C)n1` yielded a GHS category of 4.

In turn, `C=C(C)C1CCC(C)C(=O)C1` (stereo not given) returned a GHS category of 5.

`Cc1ccnc(N)c1` registered a GHS category of 4.

`C#CCN1C(=O)CCc2c(OCCCN3CCC(Cc4ccccc4)CC3)cccc21` gave a GHS category of 4.

Compound `NC[C@H]1O[C@H](O[C@H]2[C@H](O[C@@H]3O[C@H](CO)[C@@H](O)[C@H]3O)C(O)[C@H](N)C[C@@H]2N)[C@H](N)[C@@H](O)[C@@H]1O` (stereo not given in full) showed a GHS category of 5.

In turn, `CCCCCCCCCCCC(=O)N(CC)CC` returned a GHS category of 5.

`CCc1ccccc1OP(=O)(Oc1ccccc1CC)Oc1ccccc1CC` came in with a GHS category of 5.

`CC(=O)O[C@]1(C(C)=O)CC[C@H]2[C@@H]3C=C(C)C4=CC(=O)CC[C@@H]4[C@H]3CC[C@@]21C` returned a GHS category of 5.

As for `CC(C)CCOCCC(C)C`, the GHS category stood at 5.

`O=C1CN=C(c2ccccc2Cl)c2cc([N+](=O)[O-])ccc2N1` displayed a GHS category of 5.

Turning to `CCCCCCCc1ccc(O)cc1`, the GHS category amounted to 5.

The compound `COc1ccc(NC(=O)c2cc3ccccc3cc2O)cc1` returned a GHS category of 5.

Compound `Cc1ccc2oc(C3(Cn4ccnc4)OCCO3)cc2c1` returned a GHS category of 4.

Regarding `COc1cc(NC(=O)c2cc3ccccc3cc2O)c(OC)cc1Cl`, the GHS category is 5.

Consider `CN(C(=O)COc1nc2ccccc2s1)c1ccccc1`, for which the GHS category is on record as 5.

For `CCCCc1nc(C=O)c(Cl)[nH]1`, the GHS category was 5.

`CCOC(=O)N(C)C1CCCN(c2nc(N)c3cc(OC)c(OC)cc3n2)C1` (stereo not given): the GHS category came to 4.

`Cc1c(C#N)sc(N)c1C#N` displayed a GHS category of 4.

Take `COc1nn(-c2cccc(C(F)(F)F)c2)c2ncccc12`: the GHS category was 4.

In the case of `Cc1cc(NC(=O)NC(=O)c2c(F)cccc2F)nc(C)c1-c1ccc(Cl)cc1`, the GHS category was 5.

Regarding `CCS(=O)(=O)CCC(=O)NNC(=O)N1Cc2ccccc2Oc2ccc(Cl)cc21`, the GHS category came out at 5.

As to `Nc1nc(-c2ccc3ccccc3c2)cs1`, the GHS category was determined as 5.

Consider `O=C(NC(=O)c1c(F)cccc1F)Nc1cc(Cl)c(F)c(Cl)c1F`, for which the GHS category is on record as 5.

In the case of `C[C@]1(Cn2ccnn2)[C@H](C(=O)O)N2C(=O)C[C@H]2S1(=O)=O`, the GHS category is listed as 5.

With `NCCCC[C@H](OP(=O)(O)CCCCc1ccccc1)C(=O)N1CCC[C@H]1C(=O)O`, the GHS category is on record as 5.

`COc1cc2nc(N3CCC(CN(C)C(=O)c4ccco4)CC3)nc(N)c2cc1OC` returned a GHS category of 4.

`Fc1ccccc1C1=NCC(=S)N(CC(F)(F)F)c2ccc(Cl)cc21` had a GHS category of 5.

`C#CCOC(=O)Nc1nc(N2CC=CCC2)cc2nc(=O)on12` returned a GHS category of 5.

Compound `CO[C@@]1(NC(=O)Cc2cccs2)C(=O)N2C(C(=O)O)=C(COC(N)=O)CS[C@@H]21` displayed a GHS category of 5.

`CS(=O)(=O)c1ccc(F)c(C(=O)O)c1` yielded a GHS category of 5.

In turn, `CCCCCCCCCC(C)=O` came in with a GHS category of 5.

Compound `O=C1CCCCCCCCCCCCCCCO1` showed a GHS category of 5.
